The subject of series [1] is pregnant mice. The series is described as follows: Total number of pups and malformed pups at day 18. The series is classed as in vivo, C57BL/6 mice. Particulars: day 18, versus normal pregnancies or pregnancies treated with TLR agonists. The method, then: (§1) Experimental Design: C57BL/6 female mice were bred with male C57BL/6 mice. At day 13 mice were injected IP with vehicle, Poly I:C (SIGMA PO913 50 mg), CLO097 (Invivogen tlrl-C95-5), or R837 (Invivogen tlrl imq) with or without TPP (FRIMAVLAS (SEQ ID NO: 5). Mice were injected a total of 3 times, every other day. At day 18 mice were euthanized, uterus/pups, blood, blood vessels, and spleen were removed.
The number of pups and malformed pups was relatively consistent across all groups at this time point.

Series [2] relates to pregnant mice with PE induced by TLR3 or TLR7 activation. Briefly: Prevention of TLR3/TLR7-induced PE in pregnant mice, daily TPP gestational days 13-17. The series is classed as in vivo. The text has this: FIG. 14 is a series of graphs depicting results from the daily administration of the CLIP-displacing peptide TPP. Daily administration of the CLIP-displacing peptide TPP (“Pep”-gestational days 13-17) prevented the development of hypertension, endothelial dysfunction, proteinuria, fetal demise, increased γδT cells, and decreased regulatory T cells in pregnant (P) mice treated with the TLR7 agonist R837 (PR mice) or the TLR3 agonist poly I:C (PPIC mice) on gestational days 13, 15, and 17.
TPP was utilized to displace CLIP on immune cells in mice during pregnancy.

The subject of series [3] is pregnant mice. The series is described as follows: Systolic blood pressure (tail-cuff plethysmography) in pregnant mice given TLR agonists with or without TPP. Particulars: pregnant mice treated with TLR agonist alone, day 17. The series is classed as in vivo, C57BL/6 mice. The method, then:
as §1
Blood Pressure: Systolic arterial blood pressure was measured by tail-cuff plethysmography. […] were trained for three days prior to data collection. Animals were warmed to 32° C. and measurements were taken using an IITC Model 59 amplifier (Woodland Hills, Calif.), a system which correlates well with telemetry measurements of systolic blood pressure.
Pregnant mice (P) were treated with one of three TLR agonists to induce a physiological condition which mimics preeclampsia. Poly I:C is a TLR3 agonist and is well established in inducing characteristics of preeclampsia in mice. R837 is a […] activator of TLR7 but not TLR8. Similar to Poly I:C R837 induces characteristics of preeclampsia in mice. CLO097 is a […] that activates TLR7 and TLR8. While CLO097 induces some of the characteristics of preeclampsia the response is somewhat muted. […] The blood pressure of each mouse was measured on day 17 following treatment.

For series [4], the system named is Aortic rings. Briefly: Vasodilation/endothelial function of aortic rings (isometric force transducer). The series is classed as in vivo. Particulars: vessels of TLR agonist-treated pregnant mice, phenylephrine contraction, acetylcholine relaxation. The method, then:
Experimental Design: Mice were treated as described in Example 1.
Vasodilation/Endothelial Function: Aortic rings were connected to an isometric force transducer in a custom-made 15-ml organ chamber filled with 37° C. physiological salt solution (119 mM NaCl, 4.7 mM KCl, 25 mM NaHCO3, 1.18 mM KH2PO4, 1.17 mM MgSO4-7H2O, 11.1 mM Dextrose, 2.5 mM CaCl2) with 95% O2-5% CO2. All experiments were performed in the presence of indomethacin […] to inhibit prostacyclin production by cyclooxygenase. Passive tension on the vessels was set at 400 mg based on previously generated length-tension curves, and isometric force generation was recorded continuously with a PowerLab system (AD Instruments, Colorado Springs, Colo.). After a 60-min equilibration period, vessels were contracted with phenylephrine […] and repeated until reproducible contractions were obtained. […] was administered to test the functional integrity of endothelium as measured by a relaxation response. Concentration-response curves were obtained in a half-log, cumulative fashion in response to acetylcholine (1 nM to […]) following contraction to an EC70 concentration of phenylephrine. Relaxation responses were expressed as percent relaxation from phenylephrine-induced contraction. […]

In series [5] the test system is splenic CLIP+γδ T and B cells. The series is described as follows: Splenic CLIP+ γδ T cells and B cells after TLR3 or TLR7 activation in pregnant mice (flow cytometry). It is filed as in vivo. Particulars: for splenic CLIP+γδ T cells: pregnant mice treated with TLR agonist versus vehicle-treated pregnant controls. The text has this: Next, it was important to determine whether this effect also happens in vivo. Therefore, we tested whether TLR activation via TLR3 or TLR7, which cause PE in mice only if they are pregnant, increases splenic CLIP+γδ T and B cells in mice.
It was shown that MHC class II engagement, in the absence of antigen receptor engagement, can lead to the death of APCs including B cells. Since TLR-mediated activation of B cells results in ectopic CLIP expression (FIGS. 11 and 12) we sought to determine whether CLIP serves as a negative regulator of B cell death. To test this mouse splenic B cells from C57B16 mice or CLIP KO mice were activated, with or without a TLR agonist, for 48 hrs. […] Splenocytes were analyzed by flow cytometry.
(In flow cytometry, cells or beads pass a laser one at a time.)

For series [6], the system named is CLIP on the surface of B220 cells. Briefly: Immune cell markers on splenocytes: CLIP on B220 cells. The series is classed as in vivo. Particulars: pregnant mice, Poly I:C alone. The procedure:
Experimental Design: Mice were treated as described in Example 1. Splenocytes were isolated and stained for CD3, CD4, CD8, CD11b, Ly6G/C, CD25, FoxP3, CD19, B220, CD5, CLIP, and Gamma Delta TCR.
FIG. 9 is a set of graphs that depicts the removal of all CLIP (9A) versus bright CLIP (9B) and FIG. 9C from the surface of B220 cells. […] TLR agonists include CLO097; R837, and Poly I:C. FIG. 9C depicts the percentage of CLIP+cells resulting from Poly I:C stimulation with and without TPP.

Ends that are not written are not given here.

Take FRIMAVLAS [TPP, FRIMAVLAS]: in series [1], the “number of malformed pups” value was “caused no increase” and the “total number of pups” value is “caused no increase”. Moreover, the “safety, side effects on the mother or the pups” value in series [2] was “safe in mice and has no side effects on the mother or the pups”.

As for `CC(C)Cn1cnc2c(N)nc3ccccc3c21` [R837], in series [3], the blood pressure result is recorded as “significantly increased blood pressure”. Moreover, in series [4], the relaxation response result is recorded as “relaxation response is delayed”. Moreover, the “splenic CLIP+γδ T cells” value in series [5] is recorded as “increased significantly”.

As for Poly I:C, the blood pressure entry in series [3] is recorded as “significantly increased blood pressure”. The relaxation response entry in series [4] is given as “relaxation response is delayed”. Besides, in series [5] (PE mice versus normal pregnancy), the “B cell death (splenic B cells)” value is on record as “did not experience the increase in B cell death”. Further, the “splenic CLIP+γδ T cells” value in series [5] was “increased significantly”. Further, the “CLIP+ B cells” value in series [6] is on record as “significant increase”.

Source of the values: patent publication US9359404B2, “Methods and products for treating preeclampsia and modulating blood pressure” (Scott & White Healthcare, priority 2011, dated 2016).
